{
  "source": "patent US20150182574A1",
  "about": "“COMPOSITIONS AND METHODS FOR ENHANCING MOBILIZATION AND PROLIFERATION OF BLASTOMERE-LIKE STEM CELLS” (Stemtech International, Inc., priority 2012, published 2015)",
  "origin": "cited, not measured here",
  "molecules": {"B1": {"name": "G-CSF: granulocyte colony-stimulating factor, mobilization agent (protein, UniProt P09919 31-207, looked up)", "Granulocyte …": "TPLGPASSLPQSFLLKCLEQVRKIQGDGAALQEKLVSECATYKLCHPEELVLLGHSLGIPWAPLSSCPSQALQLAGCLSQLHSGLFLYQGLLQALEGISPELGPTLDTLQLDVADFATTIWQQMEELGMAPALQPTQGAMPAFASAFQRRAGGVLVASHLQSFLEVSYRVLRHLAQP"}},
  "key": {"[1]": {"conditions": "temperature and pH dependent"}, "[2]": {"test_system": "HSCs", "conditions": "intravenous injection"}, "[3]": {"test_system": "VSELs", "conditions": "in vivo"}},
  "data": [
    {"molecule": "OC[C@H]1O[C@@H](Oc2c(O)cc(O)cc2C=Cc2ccc(O)cc2)[C@H](O)[C@@H](O)[C@@H]1O", "note": "[2,3,5,4′-tetrahydroxystilbene-2-O-β-d-glycoside]", "values": [
      {"measurement": "stability in aqueous solutions", "setting": "[1]", "value": "readily degrade in aqueous solutions"}
    ]},
    {"molecule": "Fucoidan", "values": [
      {"measurement": "egress of HSCs from bone marrow into the peripheral blood stream", "setting": "[2]", "value": "promote the egress of HSCs"}
    ]},
    {"molecule": "B1", "values": [
      {"measurement": "numbers of VSELs in peripheral blood", "setting": "[3]", "value": "increase numbers of VSELs in peripheral blood"}
    ]}
  ]
}
